Measured values from patent US8772199B2, “Herbicidal compositions for tolerant or resistant maize crops” (Bayer Intellectual Property GmbH, priority 1998, dated 2014).

What was measured:
Format in all cases: in vivo
Lamium amplexicaule = test: Field trial with maize, herbicidal action; conditions: application 1-leaf stage, scoring 17 days after application
Method: (§1) Transgenic maize plants with a resistance to one or more herbicides (A) together with typical weed plants were grown in the open on 2×5 m plots under natural field conditions; alternatively, weed infestation occurred naturally when the maize plants were grown.
(§2) […] The damage to, and the development of, all aerial parts of the plants was recorded. Scoring was done on the basis of a percentage sale (100% action=all plants destroyed; 50% action=50% of the plants and green parts of the plants destroyed; 0% action=no recognizable effect=like control plot. The mean of the score values of in each case 4 plots was calculated.

[1] = test system: Mais LL (Liberty-Link-Mais, maize tolerant or resistant to glufosinate-ammonium); test: Field trial, damage to transgenic maize (tolerance by crop plants)
Method: as §1
The damage to, and the development of, all aerial parts of the plants was recorded.
Abbreviations generally used in the tables: • g of a.s./ha=gram of active substance (100% active substance) per hectare • E^A=Total of the herbicidal effects of the individual applications • E^C Colby's expected value (cf. scoring in Table 1) • “Mais LL”=®Liberty-Link-Mais, maize which is tolerant or resistant to glufosinate-ammonium, […]

Commelina benghalensis = test: Field trial with maize, herbicidal action; conditions: application 3-leaf stage, scoring 42 days after application
Method: as §1
(§3) 2, 4, 6 and 8 weeks after the application, the herbicidal activity of the active substances or active substance mixtures was scored visually with reference to the treated plots in comparison to untreated control plots. The damage to, and the development of, all aerial parts of the plants was recorded. Scoring was done on the basis of a percentage sale (100% action=all plants destroyed; 50% action=50% of the plants and green parts of the plants destroyed; 0% action=no recognizable effect=like control plot. The mean of the score values of in each case 4 plots was calculated.

Portulaca oleracea = test: Field trial with maize, herbicidal action
Method: as §1, §2

Avena fatua = test: Field trial with maize, herbicidal action; conditions: application 2- to 4-leaf stage, scoring 28 days after application
Method: as §1, §3

Echinochloa crus-galli = test: Field trial with maize, herbicidal action
Method: as §1, §2

Brachiaria plantaginea = test: Field trial with maize, herbicidal action; conditions: 1500 g of a.s./ha; application 2-leaf stage; scoring 28 days after application
Method: as §1, §3

Sorghum halepense = test: Field trial with maize, herbicidal action; conditions: application 4-leaf stage, scoring 28 days after application
Method: as §1, §3

Convolvulus arvensis = test: Field trial with maize, herbicidal action; conditions: application 3- to 4-leaf stage, scoring 28 days after application
Method: as §1, §3

Euphorbia heterophylla = test: Field trial with maize, herbicidal action; conditions: for Herbicidal action (%) against Euphorbia heterophylla: application 6-leaf stage, scoring 44 days after application; for Herbicidal action (%) against EPHHL: application 4-leaf stage, scoring 6 weeks after application
Method: as §1, §2

Sorghum bicolor = test: Field trial with maize, herbicidal action; conditions: pre-emergence application, scoring 46 days after pre-emergence application
Method: as §1, §3

Digitaria sanguinalis = test: Field trial with maize, herbicidal action; conditions: 300 g of a.s./ha; application 5-6-leaf stage; scoring 11 days after application
Method: as §1, §2

Panicum dichotomiflorum = test: Field trial with maize, herbicidal action; conditions: 300 g of a.s./ha; application 5-6-leaf stage; scoring 11 days after application
Method: as §1, §2

Sinapis arvensis = test: Field trial with maize, herbicidal action; conditions: 15 g of a.s./ha; application 4- to 5-leaf stage; scoring 28 days after application
Method: as §1, §3

Fagopyrum esculentum = test: Field trial with maize, herbicidal action; conditions: application 3- to 4-leaf stage, scoring 24 days after application
Method: as §1, §2

Galium aparine = test: Field trial with maize, herbicidal action; conditions: application 3- to 4-leaf stage, scoring 24 days after application
Method: as §1, §2

With `O=C(O)CNCP(=O)(O)O` [(A2.1), N-(phosphonomethyl)glycine] the “Herbicidal action (%) against Lamium amplexicaule” value (Lamium amplexicaule; 400 g of a.s./ha) was 75% and the “Herbicidal action (%) against Lamium amplexicaule” value (Lamium amplexicaule; 600 g of a.s./ha) was 90%.
With `CCc1cnc(C2=NC(C)(C(C)C)C(=O)N2)c(C(=O)O)c1` (stereo not shown) [(A3.2), imazethapyr] the “Mais LL” value ([1]; in vivo) was 0 and the “Herbicidal action (%) against Commelina benghalensis” value (Commelina benghalensis; 100 g of a.s./ha) was 73%.
For `CCNc1nc(Cl)nc(NC(C)(C)C#N)n1` [(B1.1), 2-(4-chloro-6-ethylamino-1,3,5-triazin-2-ylamino)-2-methylpropionitrile], the “Herbicidal action (%) against Portulaca oleracea” value (Portulaca oleracea; 2242 g of a.s./ha, application 2- to 4-leaf stage, scoring 28 days after application) was 45% and the “Herbicidal action (%) against Avena fatua” value (Avena fatua; 2242 g of a.s./ha) was 35%.
`CCOCN(C(=O)CCl)c1c(C)cccc1CC` [(B1.4), 2-chloro-N-(ethoxymethyl)-N-(2-ethyl-6-methylphenyl)acetamide] was tested, and the “Herbicidal action (%) against Echinochloa crus-galli” value (Echinochloa crus-galli; 375 g of a.s./ha, application 3- to 4-leaf stage, scoring 42 days after application) was 10%, the “Herbicidal action (%) against Echinochloa crus-galli” value (Echinochloa crus-galli; 750 g of a.s./ha, application 3- to 4-leaf stage, scoring 42 days after application) was 40% and the “Herbicidal action (%) against Echinochloa crus-galli” value (Echinochloa crus-galli; 1500 g of a.s./ha, application 3- to 4-leaf stage, scoring 42 days after application) was 45%.
`CCc1cccc(C)c1N(C(=O)CCl)C(C)COC` (stereo not shown) [(B1.5), 2-chloro-N-(2-ethyl-6-methylphenyl)-N-(2-methoxy-1-methylethyl)-acetamide] was tested, and the “Herbicidal action (%) against Portulaca oleracea” value (Portulaca oleracea; 1680 g of a.s./ha, application 2- to 4-leaf stage, scoring 28 days after application) was 35%, the “Herbicidal action (%) against Avena fatua” value (Avena fatua; 1680 g of a.s./ha) was 40% and the “Herbicidal action (%) against Brachiaria plantaginea” value (Brachiaria plantaginea) was 70%.
In the case of `CCc1cccc(CC)c1N(COC)C(=O)CCl` [(B1.6), 2-chloro-N-(2,6-diethylphenyl)-N-(methoxymethyl)acetamide], the “Mais LL” value ([1]; 1920 g of a.s./ha, application 3-leaf stage, Table 11, head names no quantity) is reported as 0 and the “Herbicidal action (%) against Commelina benghalensis” value (Commelina benghalensis; 1920 g of a.s./ha) is reported as 37%.
With `O=C(Nc1nc(OC(F)F)cc(OC(F)F)n1)NS(=O)(=O)c1ccccc1C(=O)O` [(B1.11), 2-[4,6-bis(difluoromethoxy)pyrimidin-2-ylcarbamoylsulfamoyl]benzoic acid] the “Herbicidal action (%) against Sorghum halepense” value (Sorghum halepense; 10 g of a.s./ha) was 62% and the “Herbicidal action (%) against Sorghum halepense” value (Sorghum halepense; 20 g of a.s./ha) was 93%.
`COCC(C)N(C(=O)CCl)c1c(C)csc1C` (stereo not shown) [(B1.12), 2-chloro-N-(2,4-dimethyl-3-thienyl)-N-(2-methoxy-1-methylethyl)acetamide] was tested, and the “Herbicidal action (%) against Convolvulus arvensis” value (Convolvulus arvensis; 900 g of a.s./ha) was 30%.
With `CC(C)N(C(=O)COc1nnc(C(F)(F)F)s1)c1ccc(F)cc1` [(B1.13), 4′-fluoro-N-isopropyl-2-(5-trifluoromethyl-1,3,4-thiadiazol-2-yloxy)acetanilide] the “Herbicidal action (%) against Echinochloa crus-galli” value (Echinochloa crus-galli; 125 g of a.s./ha, application 3-leaf stage, scoring 28 days after application) was 25%, the “Herbicidal action (%) against Echinochloa crus-galli” value (Echinochloa crus-galli; 250 g of a.s./ha, application 3-leaf stage, scoring 28 days after application) was 30% and the “Herbicidal action (%) against Echinochloa crus-galli” value (Echinochloa crus-galli; 500 g of a.s./ha, application 3-leaf stage, scoring 28 days after application) was 55%.
In the case of `CS(=O)(=O)c1ccc(C(=O)C2C(=O)CCCC2=O)c(Cl)c1` [(B1.14), 2-(2-chloro-4-mesylbenzoyl)cyclohexane-1,3-dione], the “Damage to Mais LL in %” value ([1]; 200 g of a.s./ha, application 6-leaf stage) is reported as 0%, the “Damage to Mais LL in %” value ([1]; 300 g of a.s./ha, application 6-leaf stage) is reported as 0% and the “Damage to Mais LL in %” value ([1]; 400 g of a.s./ha, application 6-leaf stage) is reported as 0%. For the same compound, the “Herbicidal action (%) against Euphorbia heterophylla” value (Euphorbia heterophylla; 200 g of a.s./ha) was 60%, the “Herbicidal action (%) against Euphorbia heterophylla” value (Euphorbia heterophylla; 300 g of a.s./ha) was 68% and the “Herbicidal action (%) against Euphorbia heterophylla” value (Euphorbia heterophylla; 400 g of a.s./ha) was 75%.
For `CS(=O)(=O)c1ccc(C(=O)C2C(=O)CCCC2=O)c([N+](=O)[O-])c1` [(B1.16), 2-(4-mesyl-2-nitrobenzoyl)cyclohexane-1,3-dione], the “Damage to Mais LL in %” value ([1]; 50 g of a.s./ha, application 4-leaf stage) was 0%, the “Damage to Mais LL in %” value ([1]; 100 g of a.s./ha, application 4-leaf stage) was 0% and the “Damage to Mais LL in %” value ([1]; 150 g of a.s./ha, application 4-leaf stage) was 0%. For the same compound, the “Herbicidal action (%) against EPHHL” value (Euphorbia heterophylla; 50 g of a.s./ha) was 60%, the “Herbicidal action (%) against EPHHL” value (Euphorbia heterophylla; 100 g of a.s./ha) was 58% and the “Herbicidal action (%) against EPHHL” value (Euphorbia heterophylla; 150 g of a.s./ha) was 70%.
In the case of `CCCCCCCCSC(=O)Oc1cc(Cl)nnc1-c1ccccc1` [(B2.2), 6-chloro-3-phenylpyridazin-4-yl S-octyl thiocarbonate], the “Herbicidal action (%) against Convolvulus arvensis” value (Convolvulus arvensis; 900 g of a.s./ha) is reported as 40%.
`CS(=O)(=O)c1cc(C(F)(F)F)ccc1C(=O)c1cnoc1C1CC1` [(B2.5), (5-cyclopropyl-4-isoxazolyl)[2-(methylsulfonyl)-4-(trifluoromethyl)phenyl]-methasone] was tested, and the “Herbicidal action (%) against Sorghum bicolor” value (Sorghum bicolor; 25 g of a.s./ha) was 20%, the “Herbicidal action (%) against Sorghum bicolor” value (Sorghum bicolor; 50 g of a.s./ha) was 40% and the “Herbicidal action (%) against Sorghum bicolor” value (Sorghum bicolor; 100 g of a.s./ha) was 75%.
For `Cc1ccn2nc(S(=O)(=O)Nc3c(F)cccc3F)nc2n1` [(B2.8)], the “Herbicidal action (%) against Echinochloa crus-galli” value (Echinochloa crus-galli; 50 g of a.s./ha, application 3-leaf stage, scoring 21 days after application) was 40% and the “Herbicidal action (%) against Echinochloa crus-galli” value (Echinochloa crus-galli; 70 g of a.s./ha, application 3-leaf stage, scoring 21 days after application) was 65%.
With `N#Cc1cc(Br)c(O)c(Br)c1` [(B3.1), 3,5-dibromo-4-hydroxybenzonitrile] the “Herbicidal action (%) against Portulaca oleracea” value (Portulaca oleracea; 360 g of a.s./ha, application 2- to 4-leaf stage, scoring 28 days after application) was 25%, the “Herbicidal action (%) against Portulaca oleracea” value (Portulaca oleracea; 360 g of a.s./ha, application 6-leaf stage, scoring 26 days after application) was 25% and the “Herbicidal action (%) against Avena fatua” value (Avena fatua; 360 g of a.s./ha) was 10%.
For `COc1c(Cl)ccc(Cl)c1C(=O)O` [(B3.2), 3,6-dichloro-o-anisic acid], the “Damage to Mais LL in %” value ([1]; in vivo) was 0%, the “Herbicidal action (%) against Digitaria sanguinalis” value (Digitaria sanguinalis) was 88% and the “Herbicidal action (%) against Panicum dichotomiflorum” value (Panicum dichotomiflorum) was 0%.
`O=C(O)COc1ccc(Cl)cc1Cl` [(B3.3), 2,4-dichlorophenoxyacetic acid] was tested, and the “Herbicidal action (%) against Convolvulus arvensis” value (Convolvulus arvensis; 500 g of a.s./ha) was 20%.
For `O=C(O)c1nc(Cl)ccc1Cl` [(B3.4), 3,6-dichloro-2-pyridinecarboxylic acid], the “Mais LL” value ([1]; 100 g of a.s./ha, application 3-leaf stage, Table 14, head names no quantity) was 0 and the “Herbicidal action (%) against Echinochloa crus-galli” value (Echinochloa crus-galli; 100 g of a.s./ha, application 3-leaf stage, scoring 21 days after application) was 15%.
For `COc1nc(C)nc(NC(=O)NS(=O)(=O)c2ccsc2C(=O)O)n1` [(B3.6), 3-[[[[(4-methoxy-6-methyl-1,3,5-triazin-2-yl)amino]carbonyl]amino]sulfonyl]-2-thiophenecarboxylic acid], the “Herbicidal action (%) against Sinapis arvensis” value (Sinapis arvensis) was 73%.
`COc1nc(NC(=O)NS(=O)(=O)c2ccccc2C(F)(F)F)nc(C(F)(F)F)n1` [(B3.8), N-[[[4-methoxy-6-(trifluoromethyl)-1,3,5-triazin-2-yl)amino]-carbonyl]-2-(trifluoromethyl)benzenesulfonamide] was tested, and the “Herbicidal action (%) against Fagopyrum esculentum” value (Fagopyrum esculentum; 15 g of a.s./ha) was 30%, the “Herbicidal action (%) against Fagopyrum esculentum” value (Fagopyrum esculentum; 30 g of a.s./ha) was 60% and the “Herbicidal action (%) against Fagopyrum esculentum” value (Fagopyrum esculentum; 60 g of a.s./ha) was 78%. For the same compound, the “Herbicidal action (%) against Galium aparine” value (Galium aparine; 15 g of a.s./ha) was 45%, the “Herbicidal action (%) against Galium aparine” value (Galium aparine; 30 g of a.s./ha) was 65% and the “Herbicidal action (%) against Galium aparine” value (Galium aparine; 60 g of a.s./ha) was 85%.
For `Cc1cc(Cl)ccc1OCC(=O)O` [(B3.9), (4-chloro-2-methylphenoxy)acetic acid], the “Herbicidal action (%) against Convolvulus arvensis” value (Convolvulus arvensis; 500 g of a.s./ha) was 60%.
